The structures appear in SMILES notation.

One assay concerns HCT116 p53+/+ cells. In words: Apoptosis (annexin V FACS, DNA laddering, phase contrast) in HCT116 p53+/+ cells. Format: cell-based, human.
Another assay deals with HCT116 p53−/− cells. Nature of the assay: Apoptosis (annexin V FACS, DNA laddering, phase contrast) in HCT116 p53−/− cells. Format: cell-based, human. Conditions: sulindac sulphide 120 μM, 24 and 48 hr. As to the method:
HCT116 clones were cultured in DMEM with 10% FCS. All the cell clones were cultured with penicillin 100 units ml^−1 and streptomycin 100 μg ml^−1 at 37° C. in 5% CO2 in air. Other human colorectal cancer cells lines, also defective for DNA mismatch repair (see Branch et al., 1995), were:- LoVo and RKO (p53 wild type); DLD1, LS174T, SW48 and HT29 (all p53 mutant). For transfection the cells were trypsinised and sub-cultured into 6 well plates (10 cm^2) without antibiotics, 1.5×10^5 cells per well. Selected 21-nucleotide RNAs were synthesised and BPLC purified (MWG; Germany) and annealed into siRNA duplexes according to the instructions supplied. 24 h after sub-culture the cells were transfected with siRNA formulated into liposomes (Oligofectamine, Life Technologies) according to the manufacturer's instructions. […] The final volume of culture medium was 1.5 ml per well. Cells were harvested for analysis at various times thereafter as indicated in the results. Each experiment with HCT116 cells was carried out four or more times. Transfection efficiencies were established by transfecting with liposomes containing FITC-dextran (Jiang and Milner, 2002). […]
Cell growth curves were determined by cell counting. […] The fixed cells were pelleted, washed in PBS and resuspended in PBS containing 0.1 μg/ml propidium iodide with 200 U/ml RNase A and analysed by FACS. […]

Consider `O=c1[nH]cc(F)c(=O)[nH]1` [5′ FU, 5-fluorouracil], for which, in the assay with HCT116 p53+/+ cells (HCT116 cells, Zhang et al., 2000 and results not shown), the “apoptosis by agents that activate p53” value is listed as “induced”.

Regarding `CC1=C(CC(=O)O)c2cc(F)ccc2/C1=C\c1ccc([S+](C)[O-])cc1` (stereo not drawn) [Sulindac, sulindac], the “apoptosis induced by treatment with sulindac” value is “induced apoptosis” in the assay on HCT116 p53+/+ cells (p53+/+ cells, sulindac sulphide 120 μM, 24 and 48 hr); “induced apoptosis” in the assay on HCT116 p53−/− cells.

The values above are taken from patent publication US20060223768A1, “Regulation of gene expression” (priority 2003, published 2006).
